Data: patent US9572855B2, “Combination anti-estrogen receptor cancer therapy using MUC1 peptides and chemotherapeutics” (DANA-FARBER CANCER INSTITUTE, INC., priority 2013, dated 2017)
Non-standard residues stand in square brackets, D forms with d. Residues, ends and D or L forms follow the SMILES beside them.

What was measured:
[1] = system: MCF-7/vector cells; test: Colony formation assay; assay type: cell-based, human; settings: 5 μM tamoxifen every other day for 7 days (FIG. 2E, left)
Source text: (FIG. 2A) Lysates from wild-type (WT) MCF-7 cells, MCF-7/vector and MCF-7/MUC1-C cells were immunoblotted with the indicated antibodies. (FIG. 2B) Control MCF-7/vector (diamonds) and MCF-7/MUC1-C (triangles) cells were left untreated. […] Cell number is expressed as the mean±SD of three replicates. […] The results (mean±SD of three replicates) are expressed as the percentage of cell death as determined by trypan blue staining on the indicated days (left) or on day 4 (right). (FIG. 2D) MCF-7/vector and MCF-7/MUC1-C cells were seeded at 500 cells/well (6-well plate), grown for 7 days and then stained with crystal violet (left). Colony number (>30 cells) is expressed as the mean±SD of three replicates (right). […] Colony number (>30 cells) is expressed as the mean±SD of three replicates. Colony formation assays. Cells were seeded in 6-well plates for 24 h and then left untreated or treated with inhibitor. After 7-14 d, the cells were washed and stained with 0.5% crystal violet in 25% methanol. Colonies >30 cells were counted in triplicate wells.

[2] = system: BT-474/MUC1shRNA cells; settings: 5 μM tamoxifen on days 0 and 2 (FIG. 1B)
Source text: (§1) The multiple effect-level isobologram analyses are shown for the ED50 (X), ED75 (+) and ED90 (⊙) values.

[3] = system: MCF-7/vector cells; test: Cell growth (cell number); Chou-Talalay drug combination; assay type: cell-based, human; settings: MCF-7 and MCF-7/vector cells; 5 μM tamoxifen on days 0, 2 and 4 (FIG. 2B)
Source text: as §1

[4] = system: MCF-7/MUC1-C cells; test: Cell growth (viable cell number); Chou-Talalay drug combination; assay type: cell-based, human; settings: 5 μM tamoxifen on days 0, 2 and 4 (FIG. 2B)
Source text: Lysates were immunoblotted with the indicated antibodies. […] Lysates were immunoblotted with the indicated antibodies.
(§2) (FIG. 6A) MCF-7/MUC1-C cells were infected with lentiviruses expressing the control shRNA (CshRNA) or the MUC1shRNA. Lysates from wild-type (WT) MCF-7 cells, MCF-7/MUC1-C/CshRNA and MCF-7/MUC1-C/MUC1shRNA cells were immunoblotted with the indicated antibodies. […] The results (mean±SD of three replicates) are expressed as viable cell number. […] The multiple effect-level isobologram analyses are shown for the ED50 (X), ED75 (+) and ED90 (⊙) values.

[5] = system: MCF-7/MUC1-C cells; test: Cell death by trypan blue staining; assay type: cell-based, human
Source text: (§3) (FIG. 2B) Control MCF-7/vector (diamonds) and MCF-7/MUC1-C (triangles) cells were left untreated.

[6] = system: MCF-7/MUC1-C/MUC1shRNA cells; test: Cell growth (viable cell number); assay type: cell-based, human; settings: 5 μM tamoxifen days 0 and 2 (FIG. 6B)
Source text: as §2

[7] = system: BT-474/MUC1shRNA cells; test: Colony formation assay; assay type: cell-based, human; settings: 5 μM tamoxifen every other day for 14 days (FIG. 1E, right)
Experimental: (§4) Colony formation assays. Cells were seeded in 6-well plates for 24 h and then left untreated or treated with inhibitor. After 7-14 d, the cells were washed and stained with 0.5% crystal violet in 25% methanol. Colonies >30 cells were counted in triplicate wells.

[8] = system: MCF-7/MUC1-C cells; test: Colony formation assay; assay type: cell-based, human; settings: 5 μM tamoxifen every other day for 7 days (FIG. 2E, right)
Experimental: as §3
(§5) FIGS. 5A-G. Tamoxifen-resistant cells are sensitive to MUC1-C inhibition. […] Lysates were immunoblotted with the indicated antibodies. (FIG. 5B) BT-474/CshRNA cells were left untreated (diamonds) or treated with 5 μM GO-203 (squares) each day for the indicated days. […] Lysates were immunoblotted with the indicated antibodies. (FIG. 5E) MCF-7/MUC1-C cells were left untreated (diamonds) or treated with 5 μM GO-203 (squares) each day for the indicated days. […] Soluble chromatin was precipitated with anti-ERα (left), anti-CBP (right) or a control IgG. The precipitates were analyzed for Rab31 promoter sequences.
as §4

[9] = system: BT-474/CshRNA cells; test: Cell growth (viable cell number); Chou-Talalay drug combination; assay type: cell-based, human; settings: BT-474 and BT-474/CshRNA cells; 5 μM tamoxifen on days 0 and 2; vs untreated (FIG. 1B)
[10] = system: BT-474/MUC1shRNA cells; test: Cell death by trypan blue staining; assay type: cell-based, human; settings: 5 μM tamoxifen on days 0 and 2; compared to BT-474/CshRNA cells (FIG. 1C, left)
Source text: Cell number is expressed as the mean±SD of three replicates. […] The results (mean±SD of three replicates) are expressed as the percentage of cell death as determined by trypan blue staining on the indicated days (left) or on day 4 (right). […] Colony number (>30 cells) is expressed as the mean±SD of three replicates (right). […] Colony number (>30 cells) is expressed as the mean±SD of three replicates.

[11] = system: BT-474/CshRNA cells; test: Colony formation assay; assay type: cell-based, human; settings: 5 μM tamoxifen every other day for 14 days (FIG. 1E, left)
Experimental: as §5, §4

[12] = system: MUC1-negative 293T cells; test: Cell death by trypan blue staining; assay type: cell-based, human; settings: GO-203 each day for 4 days, day 4 (FIG. 8)
Source text: FIG. 8. 293T cells were left untreated or treated with GO-203 each day for 4 days.

CC/C(=C(\c1ccccc1)c1ccc(OCCN(C)C)cc1)c1ccccc1 [tamoxifen]
formation of colonies [1]: effective in decreasing
proliferation (cell number) [2]: clearly inhibited
growth (cell number) [3]: inhibited
proliferation (cell number) [4]: little effect
loss of viability (percentage of cell death) ([5]; 5 μM tamoxifen on days 0, 2 and 4, compared to MCF-7/vector cells (FIG. 2C, left)): less sensitive
sensitivity to tamoxifen treatment (viable cell number) [6]: regained sensitivity
colony formation [7]: marked decrease
clonogenic survival [8]: but not clonogenic survival
growth (cell number) [9]: unaffected
loss of viability (percentage of cell death) [10]: marked loss of viability
ability to form colonies [11]: little if any effect

4-hydroxytamoxifen [OHTAM]
loss of viability (percentage of cell death) ([5]; 10 nM OHTAM on days 0 and 2, day 4, compared to MCF-7/vector cells (FIG. 2C, right)): less sensitive

N=C(N)NCCC[C@@H](N)C(=O)N[C@H](CCCNC(=N)N)C(=O)N[C@H](CCCNC(=N)N)C(=O)N[C@H](CCCNC(=N)N)C(=O)N[C@H](CCCNC(=N)N)C(=O)N[C@H](CCCNC(=N)N)C(=O)N[C@H](CCCNC(=N)N)C(=O)N[C@H](CCCNC(=N)N)C(=O)N[C@H](CCCNC(=N)N)C(=O)N[C@H](CS)C(=O)N[C@H](CCC(N)=O)C(=O)N[C@H](CS)C(=O)N[C@H](CCCNC(=N)N)C(=O)N[C@H](CCCNC(=N)N)C(=O)N[C@H](CCCCN)C(=O)N[C@H](CC(N)=O)C(=O)O [GO-203, [R]9-CQCRRKN] (H-[dR][dR][dR][dR][dR][dR][dR][dR][dR][dC][dQ][dC][dR][dR][dK][dN]-OH)
survival (percentage of cell death) [12]: little if any effect
